According to paper PMC8911181, “A Novel CDK4/6 and PARP Dual Inhibitor ZC-22 Effectively Suppresses Tumor Growth and Improves the Response to Cisplatin Treatment in Breast and Ovarian Cancer” (International Journal of Molecular Sciences, 2022):

How the values were obtained:
[1] = test system: CDK4/6-mediated phosphorylation of Rb; assay: Western blot of p-Rb/Rb; format: cell-based, human; conditions: MDA-MB-231 (2 μM) and OVCAR5 (0.5 μM) cells, 24 h
Procedure: Cells were washed with PBS, collected with scraper, and then lysed in RIPA buffer containing 1× protease and phosphatase inhibitors for 30 min on ice. The supernatants were collected by centrifugation at full speed for 10 min at 4 °C and subjected to SDS-PAGE followed by immunoblotting as described before. Signals were detected using enhanced chemiluminescence (Millipore, Burlington, MA, USA) and captured by the G: BOX Chemi XRQ gel doc System (Syngene, Cambridge, UK).
Figure 3 ZC-22 inhibits CDK4/6 and PARP to induce cell-cycle arrest, DNA damage, and apoptosis in breast and ovarian cancer cells. (A,B) MDA-MB-231 cells were treated with 2 μM LY2835219 (LY-2) or ZC-22. […] The levels of CDK4/6 and p-Rb/Rb were determined by Western blot (A). Cell-cycle distribution was analyzed by flow cytometry (B). […] (D,E) Representative pictures (left) and quantification of percentage (right) of γH2A.X-positive cells in MDA-MB-231 cells treated with 2 μM OLA or ZC-22 for 24 h (D), or OVCAR5 cells treated with 0.5 μM OLA or ZC-22 for 24 h (E). Values are means ± SD, n = 3. * p < 0.05, ** p < 0.01, and *** p < 0.001 for comparisons with the DMSO-treated group. p value was calculated using an unpaired t-test. […] Values are means ± SD, n = 3. * p < 0.05, ** p < 0.01, and *** p < 0.001 vs. the DMSO-treated group. p value was calculated using an unpaired t-test. […]

OVCAR5 xenograft tumors = assay: Ovarian cancer xenograft mouse model, tumor growth; format: in vivo, mice; conditions: 1.5 mg/kg cisplatin and 50 mg/kg ZC-22 ip
Procedure: Six-week-old female athymic nude mice (Homozygous) were purchase from Vital River Laboratories (Beijing, China) and maintained under the guidelines for laboratory animals of Nankai university (NKU). Mice were injected subcutaneously with 2 × 10^6 MDA-MB-231 or 8 × 10^6 OVCAR5 cells. When tumors were 50–100 mm^3 in size, the mice were randomly grouped and treated intraperitoneal (i.p.) with 50 mg/kg of Olaparib, 50 mg/kg of LY2835219, 50 mg/kg of ZC-22, or 1.5 mg/kg of cisplatin alone or in combinations or with the vehicle (PBS containing 10% DMSO and 10% 2-hydroxy-propyl-β-cyclodextrin) every 2 days. Tumor volume was measured every 3–4 days, which was calculated as Length × Width^2/2. At the end of the study, tumor and major organ tissues were harvested by surgery. For histopathological analysis, tissue samples were washed with PBS, fixed in 4% paraformaldehyde (PFA), paraffin-embedded, and sectioned into 7 μm thickness. […]
Figure 7 ZC-22 increases the efficacy of cisplatin treatment in ovarian cancer cells in vivo. […] Tumor volumes were measured every 2–3 days. […] (B,C) Pictures (B) and quantification of the size (C) of the OVCAR5 xenograft tumors at the end points. […] (D,E) Representative pictures (D) and quantification of percentage (E) of Ki67 and γH2A.X-positive cells in immunohistochemical staining of the OVCAR5 xenograft tumor tissues. […]

Row | Structure (SMILES) | inhibitory activity on CDK4/6-mediated phosphorylation of Rb [1] | sensitization to cisplatin treatment (tumor growth) (OVCAR5 xenograft tumors)
1 | CCN1CCN(Cc2ccc(Nc3ncc(F)c(-c4cc(F)c5nc(C)n(C(C)C)c5c4)n3)nc2)CC1 [LY2835219, Abemaciclib, reference compound] | equal inhibitory activity | 
2 | Cc1nc2c(F)cc(-c3nc(Nc4ccc(N5CCN(C(=O)c6cc(Cc7n[nH]c(=O)c8ccccc78)ccc6F)CC5)cn4)ncc3F)cc2n1C(C)C [ZC-22, 4-(4-fluoro-3-(4-(6-((5-fluoro-4-(4-fluoro-1-isopropyl-2-methyl-1H-benzo[d]imidazole-6-yl)pyrimidin-2-yl)amino)pyridin-3-yl)piperazine-1-carbonyl)benzyl)phthalazin-1(2H)-one] | equal inhibitory activity | significantly sensitized ovarian cancer cells to cisplatin treatment
